The record followed here is US20210346394A1, “Remyelination Therapy” (The Regents of the University of California, priority 2016, published 2021).

The subject of test [1] is demyelinated lesion in corpus callosum. Kind of test: Lysolecithin-induced demyelination of the corpus callosum. The class given is in vivo. The settings on record: mice, 10 mg/kg for 7 days after lysolecithin, 10 days post injection, vs vehicle. Here is the method:
Example 5. Effects of BZA on OPC Differentiation. Lysolecithin was injected in the corpus callosum of mice and analyzed at 6 days after injection, showing a demyelinated lesion area. Mice were treated with either BZA (10 mg/kg) or vehicle control for 7 days after injection of lysolecithin. Mice were euthanized at 10 days post injection and brains were sectioned and immunostained for myelin oligodendrocyte glycoprotein peptide (MOG), Adenomatous polyposis coli (APC-a maker of mature oligodendrocytes) and Olig2. Quantification of APC-positive cells indicated a 2-fold increase in remyelination in the corpus callosum after treatment with BZA, as depicted in FIG. 3.
Example 6. BZA effects on remyelination kinetics. Toxic, focal demyelinating injury was induced in the corpus callosum of 8-week old adult mice the rate and extent of remyelination was assessed, using previously described methodology. Demyelination was induced by injecting 1 μl of 1% solution of lysolecithin. Essential to this demyelinating model is the timeline for repair, comprising active demyelination [1-3 days post lesion (dpl)], OPC recruitment (3-7 dpl, peaking at 5 dpl), oligodendrocyte differentiation (7-10 dpl) and active remyelination (14-21 dpl). Oligodendrocyte differentiation and remyelination at 10 dpl was analyzed, allowing assessment of BZA effects on the kinetics of myelin repair. […]

Test [2] concerns OPCs derived from WT P7 rat pups. Description: Differentiation of isolated OPCs treated with SERMs (MBP/PDGFRα/DAPI immunostaining). The settings on record: 500 nM for 48 hours. Format: cell-based. Here is the method: Example 3. OPC Differentiation. To assess the effect of selected SERMs on myelination, OPCs were derived from WT P7 rat pups using previously validated methodology, cultured in isolation, and treated with a select group of SERMs at a preliminary concentration of 500 nM for 48 hours. Cells were then permeabilized and immunostained for MBP (oligodendrocytes), PDGFRα (OPCs), and DAPI (cell bodies).

With `Cc1c(-c2ccc(O)cc2)n(Cc2ccc(OCCN3CCCCCC3)cc2)c2ccc(O)cc12` [BZA, bazedoxifene], in test [1], the “increase in remyelination (APC-positive cells) in the corpus callosum” value was found to be 2 fold. Regarding `N#CC(Cc1ccc(O)cc1)c1ccc(O)cc1` (stereo not drawn) [2,3-bis(4-hydroxyphenyl)-propionitrile], in test [2], the OPC differentiation entry is given as “significantly enhanced OPC differentiation”. On the same count and under the same terms, next, `CC/C(=C(\c1ccccc1)c1ccc(OCCN(C)C)cc1)c1ccccc1` [tamoxifen]: “significantly enhanced OPC differentiation”.
